Experimental data as given in patent US20240074473A1, “METHOD FOR INDUCING HYPERTROPHIC MUSCLE FIBERS FOR INDUSTRIAL MEAT PRODUCTION” (Yeda Research and Development Co. Ltd., priority 2021, published 2024).
Read-outs that look alike come from different tables or passages of the source.

What was measured:
[1] = Risk categorization of cell culture media ingredients
Source text: Category 1: These cell culture media components are food ingredients/additives that are GRAS or permitted by federal regulation without limitation on use. Exemplary compounds in this category include innocuous ingredients such as sugars, pH buffers, water soluble vitamins, and common antioxidants such as tocopherols.
Category 2: These cell culture media components are common dietary nutrients and are anticipated to have GRAS status for food use or be permitted by regulation for addition to food. Examples of such compounds include most of the inorganic salts and macronutrients that are present within the cell culture media. […] Majority of nutrients present within the poultry cell-based meat may be readily measured using common validated methods for food composition testing. Batch analyses of multiple lots of the finished product may be obtained to validate the above assumptions. In some instances, consideration of established safe levels (e.g., ADI, UL) derived from a relevant authoritative body (e.g., U.S. FDA, EFSA, JECFA, FSANZ, U.S. EPA) may be leveraged to support safety. If comparisons of anticipated dietary intakes relative to an authoritative reference intake value is used, consideration of additive intakes from all dietary sources may be considered. In the absence of an authoritative reference intake value, published NOAELs from animal toxicology studies may be used to evaluate safety using standard scientific procedures for food safety evaluation. A margin of exposure (MoE) of 100-fold or greater between the NOAEL and estimated dietary intakes from food exposures is typically considered adequate to support safety. in situations where the MoE is <100-fold, additional measures for further reduction of the media component may be necessary, or further characterization of intraspecies/interspecies differences in metabolism may be necessary. These situations also require careful consideration of the regulatory status on a case-by basis (e.g., premarket approval as a food additive or GRAS evaluation required).
For example, situations where the compound is not detectable in finished product or is present at equivalent levels in comparator foods, compounds that are thermo-labile and will be digested during cooking, and/or compounds that are expected to be digested to innocuous compounds following ingestion. Examples of compounds meeting the aforementioned conditions would include recombinant growth factors and serum components. For Category 3 substances a final consideration in the safety assessment process may involve hazard characterization of the potential for a substance to produce toxic biological effects outside of the endpoints measured in a sub-chronic rat toxicity study. Substances with biological activity may require additional hazard characterization related to reproductive and developmental toxicity, or immunotoxicity. Considerations for allergenicity, biological effects in humans (e.g., effects on blood pressure), and synergistic effects with other media components also may be evaluated. […] Examples of category 3 components include recombinant proteins and animal serum.

[2] = cited from earlier work
[3] = Maximum estimated dietary exposure to media ingredients per 100 g serving; settings: assumption of complete transfer of media components to the finished product on a wt/wt basis
primary mouse myoblasts [4] = assay: qRT-PCR gene expression in primary mouse myoblasts; type: cell-based; settings: co-treatment with ERKi and RXRi, 24 hours post treatment
Procedure: Quantitative real-time PCR (qRT-PCR). Total RNA was isolated using Tri-Reagent (SIGMA) according to the manufacturer's instructions. cDNA was synthesized with the High Capacity cDNA Reverse Transcription Kit (Applied Biosystems according to the manufacturer's instructions. qRT-PCR was performed with SYBR green PCR Master Mix (Applied Biosystems) using the StepOnePlus Real-time PCR system (Applied Biosystems). Values for specific genes were normalize to either Gapdh or Hprt housekeeping control as indicated in Figure legend. Expression was calculated using the ddCT method.
First passage primary mouse derived myoblast were seeded in proliferation media, in equal number in 12-well tissue culture plates that were precoated with 10% Matrigel solution. Following 24 hours to allow for complete attachment, culture media was washed and replaced either with fresh proliferation media (PM), PM supplemented with 1 uM SCH 772984 (ERKi) or differentiation media (DM). After 24 hrs, cells were lysed and RNA was collected. Gene expression analysis was carried out using SYBR green qRT-PCR analysis.

primary mouse myoblasts [5] = assay: Fusion index of primary mouse myoblasts (MyHC immunostaining); type: cell-based
Procedure: (§1) Isolation of and treatment of primary myoblasts. Primary mouse myoblasts were isolated from gastrocnemius muscle using trypsin-tissue dissociation. Briefly, muscle tissues were incubated in Trypsin B (0.25%, Biological Industries) and subjected to mechanical dissociation with a serological pipet. Supernatants were strained and centrifuged. Pellets were grown resuspended in BioAmf-2 media (Biological Industries, Israel) and plated on 10% Matrigel (BD Biosciences)-coated plates at 37° and 5% CO2. For all in vitro experiments, proliferation medium was Bio-Amf2 (Biological Industries, Israel) and Differentiation medium (DM) was DMEM 2% Horse Serum (HS) with 1% Pen/Strep. For fusion assays, cells were trypsinized with Trypsin C (0.05%, Biological Industries) and subjected to two rounds of preplating on uncoated plates to reduce the number of fibroblasts. Cells were plated at a density of 8×10^3 per well in 10% Matrigel-coated 96-well plates in proliferation medium for 24 hours. The following day, proliferation media was replaced either with proliferation media or with DM containing DMSO (Ctrl) or 1 μM ERK1/2 inhibitor (ERKi; SCH772984, Cayman Chemicals), […] RXR antagonist (RXRi; HX-531, Cayman Chemicals), […] Ryanodine receptor antagonist (RYRi; Dantrolene, Cayman Chemicals), 5 μM CaMKII inhibitor (CaMKIIi; KN93, Cayman Chemicals), or with DM for controls.
Immunofluorescence staining. First passage primary myoblasts isolated from various strains (indicated in figure legends) were plated in 96-well plates or chamber slides and treated as previously described. The cells were fixed with ice cold 4% PFA in PBS for 10 minutes, permeabilized with 0.5% Triton X-100 in PBS for 6 minutes, and blocked in PBS with 0.025% tween, 10% normal horse serum and 10% normal goat serum for 1 hour at room temperature. Primary antibody incubation was done in blocking buffer overnight at 4 degrees, with the following antibodies: Myosin Heavy Chain (MyHC, MF20, DSHB hybridoma supernatant 1:10, or MY-32 ABCAM ab51263 1:400), Myogenin (MYOG sc-13137 SCBT 1:200), pHistone 3 (PH3, ab47297 ABCAM 1:1000), Ki-67 (Cell Marque #275R), RYR (ab2868 ABCAM 1:100), and pCaMKII (SIGMA SAB4504356 1:100). Cells were washed 3 times in PBS with 0.025% tween and then incubated with appropriate secondary antibodies in PBS 1 hour. Where indicated, nuclei were either labeled with DAPI (SIGMA D9542, 5 ug/ml) or Hoechst 33342 (Thermo scientific #62249, 1:2000). Fixed cells at 24 hours post treatment with indicated inhibitors were imaged using the Nikon Eclipse Ti2 microscope (further described in microscopy section). All analysis was performed on at least 1000 nuclei. […]
Quantification of fusion index. Following immunostaining and imaging, a fusion index was quantified by manually identifying nuclei found in a MyHC positive cell with at least 2 nuclei. Then the values were expressed as a percentage of the total nuclei per field. Briefly, in Figures where fusion index is stratified into subgroups of fiber size, the nuclei number in MyHC positive cell was manually quantified in a given field and stratified into groups of mononucleated, bi-nucleated myotubes, myotubes with 3-10 nuclei and myotubes with greater than 10 nuclei. […] Fields were analyzed hourly, and nuclei per cell was quantified and stratified into mononucleated, bi-nucleated, tri-nucleated and cells with ≥4 nuclei.

primary mouse myoblasts [6] = assay: MYOG positive nuclei in primary mouse myoblasts (immunofluorescence); type: cell-based; settings: co-treatment with 1 μM ERKi, 24 hrs; HX531 20 uM, Dantrolene 50 uM, BAPTA-AM 10 uM, KN93 5 uM
Procedure: as §1
Immunofluorescence staining. First passage primary myoblasts isolated from various strains (indicated in figure legends) were plated in 96-well plates or chamber slides and treated as previously described. The cells were fixed with ice cold 4% PFA in PBS for 10 minutes, permeabilized with 0.5% Triton X-100 in PBS for 6 minutes, and blocked in PBS with 0.025% tween, 10% normal horse serum and 10% normal goat serum for 1 hour at room temperature. Primary antibody incubation was done in blocking buffer overnight at 4 degrees, with the following antibodies: Myosin Heavy Chain (MyHC, MF20, DSHB hybridoma supernatant 1:10, or MY-32 ABCAM ab51263 1:400), Myogenin (MYOG sc-13137 SCBT 1:200), pHistone 3 (PH3, ab47297 ABCAM 1:1000), Ki-67 (Cell Marque #275R), RYR (ab2868 ABCAM 1:100), and pCaMKII (SIGMA SAB4504356 1:100). Cells were washed 3 times in PBS with 0.025% tween and then incubated with appropriate secondary antibodies in PBS 1 hour. Where indicated, nuclei were either labeled with DAPI (SIGMA D9542, 5 ug/ml) or Hoechst 33342 (Thermo scientific #62249, 1:2000). Fixed cells at 24 hours post treatment with indicated inhibitors were imaged using the Nikon Eclipse Ti2 microscope (further described in microscopy section). All analysis was performed on at least 1000 nuclei. For fixed cells following the timecourse with ERKi or DM (FIG. 1B), images were captured with an inverted Olympus IX83 microscope (further details in microscopy section). All imaging analysis were performed on at least 1000 cells.

[7] = cell culture media ingredient used during meat production

Maximum Estimated Exposure per 100 g serving [3]	Risk Assessment Category [1]	Structure (SMILES)	Risk Assessment Category [1, 7]	Differentiation (percent of MYOG positive nuclei) on co-treatment with ERKi (primary mouse myoblasts [6])	also measured
25 mg	1	NC(=O)c1cccnc1 [NIACINAMIDE (NICOTINAMIDE), NIACINAMIDE]			Safe Reference Level for Human Dietary Intake: UL (Tolerable Upper Limit) ([2]; human dietary intake, niacinamide and magnesium sulfate: supplements): UL = 10 to 35 mg
		CN1c2ccc([N+](=O)[O-])cc2N=C(c2ccc(C(=O)O)cc2)c2cc3c(cc21)C(C)(C)CCC3(C)C [HX531]		without affecting differentiation	Ryr1 and Ryr3 mRNA expression (primary mouse myoblasts [4]): downregulation; Suppression of ERKi-induced fusion (primary mouse myoblasts [5]; co-treatment with ERKi and 20 uM HX531, 24 hours): 47%
1000 mg		CC(=O)C(=O)[O-].[Na+] [SODIUM PYRUVATE]	3		Safe Reference Level for Human Dietary Intake, in words ([2]; dietary intakes within the range of OSL values reported in human investigations): Dietary intakes within
1 mg	2	CCCCC/C=C\C/C=C\CCCCCCCC(=O)O [LINOLEIC ACID]			Safe Reference Level for Human Dietary Intake: AI (Adequate Intake) ([2]; human dietary intake): AI = 7 to 12 g/d
0.024 mg	1	C=C1CC[C@H](O)C/C1=C/C=C1\CCC[C@]2(C)[C@@H]([C@H](C)/C=C/[C@H](C)C(C)C)CC[C@@H]12 [VITAMIN D2 (ERGOCALCIFEROL), ERGOCALCIFEROL]			Safe Reference Level for Human Dietary Intake: UL (Tolerable Upper Limit) ([2]; human dietary intake): UL = 100 ug/d
		CC(=O)OCOC(=O)CN(CC(=O)OCOC(C)=O)c1ccccc1OCCOc1ccccc1N(CC(=O)OCOC(C)=O)CC(=O)OCOC(C)=O [BAPTA-AM]		without affecting early differentiation	Reduction of ERKi-induced fusion (primary mouse myoblasts [5]; co-treatment with ERKi and BAPTA-AM (10 uM per FIG. 2B)): 81%
		O=C1CN(/N=C/c2ccc(-c3ccc([N+](=O)[O-])cc3)o2)C(O)=N1 [Dantrolene]		without affecting differentiation	Reduction of ERKi-induced fusion (primary mouse myoblasts [5]; co-treatment with ERKi and 50 uM Dantrolene): 60%

Structure (SMILES)	Maximum Estimated Exposure per 100 g serving [3]	Risk Assessment Category [1]	Risk Assessment Category [1, 7]	Differentiation (percent of MYOG positive nuclei) on co-treatment with ERKi (primary mouse myoblasts [6])	also measured
O.O=S(=O)([O-])[O-].[Mn+2] [MANGANESE SULFATE H2O]	0.003 mg		1		Safe Reference Level for Human Dietary Intake (kind of level not given) ([2]; human dietary intake): 2 to 11 mg/day
[Ca+2].[Cl-].[Cl-] [CALCIUM CHLORIDE (ANHY)]	760 mg		1		Safe Reference Level for Human Dietary Intake (kind of level not given) ([2]; human dietary intake): 1000 to 3000 mg/day
[Cl-].[K+] [POTASSIUM CHLORIDE]	4000 mg		1		Safe Reference Level for Human Dietary Intake (UL) given as symbol ([2]; human dietary intake): UL = NS
